Source: paper PMC10525924, “Engineering and Purification of Microcin C7 Variants Resistant to Trypsin and Analysis of Their Biological Activity” (Antibiotics, 2023)
Where a SMILES comes first, the peptide text is derived from it.

What was measured:
[1] = test system: Yej^+rimL^− strain; test: organism not typed; assay type: cell-based; conditions: for Diameters of the inhibition zones, Trypsin-Treated Group, Yej^+rimL^− / bacteriostatic activity after trypsin treatment, Yej^+rimL^−: supernatant treated with trypsin 50 μg/mL, 37 °C, 3 h; for Diameters of the inhibition zones, Trypsin-Treated Group, Yej^+rimL^−: pH 6.8, 37 °C 24 h; for Diameters of the inhibition zones, Trypsin-Treated Group, Yej^+rimL^− / bacteriostatic activity after trypsin treatment, Yej^+rimL^− / Diameters of the inhibition zones, Trypsin-Untreated Group, Yej^+rimL^−: agar diffusion; for Diameters of the inhibition zones, Trypsin-Treated Group, Yej^+rimL^− / Diameters of the inhibition zones, Trypsin-Untreated Group, Yej^+rimL^−: dash = no zone; for Diameters of the inhibition zones, Trypsin-Untreated Group, Yej^+rimL^−: 200 μL fermentation supernatant, 1 × 10^5 CFU/mL, 4 °C 1 h then 37 °C 24 h, chloramphenicol 100 μL of 0.25 μg/mL
Source text: To analyze the antimicrobial ability of the variants, we measured the inhibition zones of all 21 variants by the agar diffusion method. The peptide moiety of McC was recognized by a YejABEf-peptide transporter. The rimL contains an acetyltransferase domain homologous to MccE which can detoxify and provide resistance to McC [17]. The overexpression of the YejABEF gene cluster and rimL gene knockout made the strain hypersensitive to McC. Therefore, the Yej^+rimL^− strain was selected as the sensitive indicator bacterial strain.
(§1) The pH was adjusted to 6.8.
(§2) The fermentation supernatants and pure products were used to characterize the bacteriostatic effects of McC variants by the agar diffusion and microdilution methods. Yej^+rimL^− and E. coli K88 indicator bacteria were applied. The serotype of E. coli K88 was O149:K91, K88ac, a clinically isolated strain, and provided by the College of Veterinary Medicine, China Agricultural University. The indicated bacteria were diluted to 1 × 10^5 CFU/mL and added to plate medium cooled to 50 °C. Two hundred microliters of supernatants were added to each dish, and diffusion was performed at 4 °C for 1 h. After incubation at 37 °C for 24 h, the diameters of the inhibition zones were determined. One hundred microliters of 0.25 μg/mL chloramphenicol was used as a control. The MICs of the pure McC variants were determined by microdilution in a sterilized 96-well microplate. The McC variants were serially diluted 2 times in 96-well microplates with LB medium. The concentrations of the McC variants ranged from 0.125 to 100 µg/mL. Each well was inoculated with 10 μL of overnight bacterial culture at a concentration of 1.0 × 10^5 CFU/mL and incubated at 37 °C for 24 h. A microplate reader was used to automatically observe changes in absorbance at 600 nm in order to monitor bacterial growth. A positive control group (including inoculated medium) and a negative control group (with medium only) were included. The MIC was determined as the lowest concentration of McC variant that inhibited bacterial growth (preventing an increase in the absorbance reading). All tests were performed in triplicate.

[2] = test system: E. coli K88; test: microbe, parasite or virus in culture; assay type: cell-based
Experimental: as §1, §2

[3] = test system: Yej^+rimL^− strain; assay type: cell-based; conditions: HPLC-purified variants; microdilution in LB, 96-well; 0.125 to 100 µg/mL; 1.0 × 10^5 CFU/mL; 37 °C 24 h; absorbance 600 nm; triplicate
Experimental: To accurately characterize the bacteriostatic abilities of the variants, the MICs of the pure McC variants toward the McCsensitive strain Yej^+rimL^− were determined. The MICs of all variants were lower than that of wild-type McC. From smallest to largest MIC, the above five variants were in the following order: R2A, R2T, R2Q, R2S, and R2H. […] Although the diameter of the inhibitory zone of R2M was smaller than those of the above five variants, the bacteriostatic ability of R2M was second only to R2T/R2Q, and the MIC was 50 μg/mL.
as §2

[4] = Remaining amount by RP-HPLC after pepsin treatment; assay type: in vitro ADME; conditions: isolated enzyme pepsin; pepsin treated for 3 h; read-out RP-HPLC; Table S2
Experimental: (§3) To test whether the variants were tolerant to trypsin or other digestive enzymes, the amount of the remaining McC and its analogues remaining was determined by RP-HPLC after trypsin, pepsin, and chymotrypsin treated for 3 h (Table S2), and the inhibition zones of trypsin-treated variants were tested using the same method (Table 2).

[5] = HPLC retention time according to hydrophobicity; assay type: physicochemical; conditions: chromatographic, C18 5 μm 9.4 × 250 mm; A 0.1% trichloroacetic acid, B 0.1% trichloroacetic acid with 90% acetonitrile; linear 5% B to 50% B; 1 mL/min; 35 °C; 280 nm; varies according to hydrophobicity
Experimental: To find the separation peaks of the variants, wildtype McC and blank control fermentation broth samples were tested by HPLC. The separation peaks with obvious differences (those with retention times of 11 min and 17 min) were purified and the antimicrobial activity was determined. […] Therefore, the molecular weight was further analyzed by mass spectrometry, and the separation peak at approximately 17 min was confirmed to be that of the desired purified McC. Since the mutations in this study involved only one amino acid and had few effects on the properties of the peptides, we predicted that the separation peaks of the variants should fluctuate around approximately 17 min according to their hydrophobicity. […] The purity of the purified variants was determined by HPLC to be greater than 80% (Table 3).
The lyophilized supernatants were dissolved in deionized water, filtered through 0.22 μm aqueous-phase filter membranes, and purified by high-performance liquid chromatography (HPLC, Agilent Technologies Inc., Palo Alto, CA, USA) with C18 column (5 μm 9.4 × 250 mm, Agilent Technologies Inc., Palo Alto, CA, USA). The mobile phase was composed of 0.1% (v/v) trichloroacetic acid (solvent A) and 0.1% (v/v) trichloroacetic acid with 90% (v/v) acetonitrile (solvent B). A linear gradient from 95% A/5% B to 50% A/50% B was used with a flow rate of 1 mL/min, a sample volume of 10 μL, a column temperature of 35 °C, and a detection wavelength of 280 nm. Electrospray ionization mass spectrometry (ESI-MS) was used to compare the McC variant masses with the expected masses. The relationships between the relative abundances and the mass-to-charge ratios (m/z) of the ions were determined to confirm the identities of the experimentally produced McC variants.

[6] = Remaining amount by RP-HPLC after chymotrypsin treatment; assay type: in vitro ADME; conditions: isolated enzyme chymotrypsin; chymotrypsin treated for 3 h; read-out RP-HPLC; Table S2
Experimental: as §3

SMILES: O=C(N[C@H](CO)[C@H](O)c1ccc([N+](=O)[O-])cc1)C(Cl)Cl [Chloramphenicol, reference compound]
- zone of inhibition at 0.25 µg/mL ([1]; read-out: Diameters of the inhibition zones, Trypsin-Untreated Group, Yej^+rimL^−): 23.4 mm
- Diameters of the inhibition zones, Trypsin-Treated Group, Yej^+rimL^− [1]: 20.96 mm
- zone of inhibition at 0.25 µg/mL ([2]; Escherichia coli, K88, read-out: Diameters of the inhibition zones, Trypsin-Untreated Group, K88): 23.6 mm
- Diameters of the inhibition zones, Trypsin-Treated Group, K88 ([2]; supernatant treated with trypsin 50 μg/mL, 37 °C, 3 h, pH 6.8, agar diffusion, 37 °C 24 h, dash = no zone): 22.79 mm

SMILES: CSCC[C@H](NC=O)C(=O)N[C@@H](CC(=O)O)C(=O)N[C@H](C(=O)NCC(=O)N[C@@H](CC(N)=O)C(=O)N[C@@H](C)C(=O)N[C@@H](CC(=O)O)C(=O)NP(=O)(OCCCN)OC[C@H]1O[C@@H](n2cnc3c(N)ncnc32)[C@H](O)[C@@H]1O)[C@@H](C)O (some centres unmarked) [R2D] (HELM PEPTIDE1{[O=C[*:2]].M.D.T.G.N.A.[NCCCOP(=O)(NC(=O)[C@H](CC(=O)O)N[*:1])OC[C@H]1O[C@@H](n2cnc3c(N)ncnc32)[C@H](O)[C@@H]1O]}$$$$V2.0)
- MIC [3]: >100 µg/mL
- remaining at 3 h [4]: 83.9 ± 1.42%
- Retention Time [5]: 17.625 min
- remaining at 3 h [6]: 42.4 ± 1.07%
- bacteriostatic activity after trypsin treatment, Yej^+rimL^− [1]: exhibited antibacterial effects
- Diameters of the inhibition zones, Trypsin-Untreated Group, Yej^+rimL^− [1]: 17.71 mm
- Diameters of the inhibition zones, Trypsin-Treated Group, Yej^+rimL^− [1]: 14.11 mm

SMILES: CSCC[C@H](NC=O)C(=O)N[C@@H](Cc1ccccc1)C(=O)N[C@H](C(=O)NCC(=O)N[C@@H](CC(N)=O)C(=O)N[C@@H](C)C(=O)N[C@@H](CC(=O)O)C(=O)NP(=O)(OCCCN)OC[C@H]1O[C@@H](n2cnc3c(N)ncnc32)[C@H](O)[C@@H]1O)[C@@H](C)O (some centres unmarked) [R2F] (HELM PEPTIDE1{[O=C[*:2]].M.F.T.G.N.A.[NCCCOP(=O)(NC(=O)[C@H](CC(=O)O)N[*:1])OC[C@H]1O[C@@H](n2cnc3c(N)ncnc32)[C@H](O)[C@@H]1O]}$$$$V2.0)
- remaining at 3 h [4]: 82.3 ± 0.94%
- remaining at 3 h [6]: 41.1 ± 0.98%
- Diameters of the inhibition zones, Trypsin-Untreated Group, Yej^+rimL^− [1]: 13.05 mm
- Diameters of the inhibition zones, Trypsin-Treated Group, Yej^+rimL^− [1]: 10.95 mm
- Diameters of the inhibition zones, Trypsin-Untreated Group, K88 ([2]; agar diffusion, 200 μL fermentation supernatant, 1 × 10^5 CFU/mL, 4 °C 1 h then 37 °C 24 h, chloramphenicol 100 μL of 0.25 μg/mL, dash = no zone): 14.34 mm

SMILES: CSCC[C@H](NC=O)C(=O)NCC(=O)N[C@H](C(=O)NCC(=O)N[C@@H](CC(N)=O)C(=O)N[C@@H](C)C(=O)N[C@@H](CC(=O)O)C(=O)NP(=O)(OCCCN)OC[C@H]1O[C@@H](n2cnc3c(N)ncnc32)[C@H](O)[C@@H]1O)[C@@H](C)O (some centres unmarked) [R2G] (HELM PEPTIDE1{[O=C[*:2]].M.G.T.G.N.A.[NCCCOP(=O)(NC(=O)[C@H](CC(=O)O)N[*:1])OC[C@H]1O[C@@H](n2cnc3c(N)ncnc32)[C@H](O)[C@@H]1O]}$$$$V2.0)
- MIC [3]: >100 µg/mL
- remaining at 3 h [4]: 85.89 ± 0.79%
- Retention Time [5]: 17.253 min
- remaining at 3 h [6]: 45.6 ± 1.31%
- bacteriostatic activity after trypsin treatment, Yej^+rimL^− [1]: exhibited antibacterial effects
- Diameters of the inhibition zones, Trypsin-Untreated Group, Yej^+rimL^− [1]: 18.86 mm
- Diameters of the inhibition zones, Trypsin-Treated Group, Yej^+rimL^− [1]: 14.15 mm
